Experimental data taken from US11992517B2, “Compositions and methods for promoting the mineralization of biological tissue” (NEW YORK SOCIETY FOR THE RUPTURED AND CRIPPLED MAINTAINING …, priority 2013, dated 2024).

Tests used:
BNP cells = experiment: Effect of IL-1β on mineralization, Alizarin Red staining; assay type: cell-based, bovine; details: IL-1β 0.01 and 2 ng/ml, 7 and 10 days
Procedure: (§1) Cells from Example 2 were grown in mineralization medium in the presence or absence of a low dose of […] (0.01 ng/ml) or a high dose (2 ng/ml) (R&D Systems). Cells were analyzed by Alizarin Red staining at 7 and 10 days as previously described. RT-PCR analysis of ANK and ENPP was also performed as previously described, using primers specific for ANKH and ENPP1.

ANKH = experiment: RT-PCR of ANK after IL-1β treatment; assay type: cell-based, bovine; details: IL-1β 0.01 and 2 ng/ml; naïve cells and TNAP-infected BNP cells; day 3; FIG. 23
Procedure: as §1

ENPP1 = experiment: RT-PCR of ENPP after IL-1β treatment; assay type: cell-based, bovine; details: IL-1β 0.01 and 2 ng/ml; naïve cells and TNAP-infected BNP cells; day 3; FIG. 23
Procedure: as §1

bovine NP cells = experiment: Effect of TNF-α on mineralization, Alizarin Red and von Kossa staining; assay type: cell-based
Procedure: The cells from Example 2 (TNAP infected and naïve) were grown in high density cultures in a medium comprising DMEM high glucose (4.5 g/L) plus 1% PenStrep, and 10% FBS, and 50 μ/ml ascorbic acid, and 5 mM of β-glycerophosphate (mineralization medium). Some cells were also stimulated with 10 ng/mL of hfTNF-α.
The cells were stained with Alizarin Red and von Kossa stain after 7, 14, and 21 days.

| Substance | Alizarin Red staining of NP cells transduced with LacZ (BNP cells) | calcium staining with Alizarin Red of TNAP-infected BNP cell cultures (BNP cells; mineralization medium, FIGS. 21, 22) | ANK transcripts (ANKH) | ENPP transcripts (ENPP1) | mineralization of NP cells stimulated with TNF-α only (bovine NP cells; 10 ng/mL TNF-α, cells without TNAP) | staining of TNAP infected cells stimulated with TNF-α (bovine NP cells; 10 ng/mL TNF-α, versus unstimulated TNAP infected cells, FIG. 10) | more Alizarin Red staining than TNAP alone (bovine NP cells; TNAP overexpressing cells stimulated with TNF-α, average over three weeks, FIG. 11) [%] |
| --- | --- | --- | --- | --- | --- | --- | --- |
| IL-1β: interleukin 1β (R&D Systems) added at 0.01 or 2 ng/ml | no observable change | dose-dependent increase | dose-dependent decrease | dose-dependent decrease |  |  |  |
| TNF-α |  |  |  |  | did not show mineralization | darker | 45 |
